Assay results from patent publication USRE29225E, “N-substituted derivatives of 3-carboxamide and 3-thiocarboxamide” (The Dow Chemical Company, priority 1976, dated 1977).
Values after ≈ are worked out from the molar mass of the structure shown. Read-outs that look alike come from different tables or passages of the source.

Tests used:
Format in all cases: cell-based
[1] = system: S. aureus; test: agar dilution test, S. aureus; conditions: Staphylococcus aureus, complete growth inhibition, read-out: Minimum Inhibitory Concentration, Sa
Description: (§1) In representative operations, the products of the invention when tested for antimicrobial activity using conventional agar dilution tests gave complete growth inhibition against the following organisms at the indicated concentrations in parts per million: […]

[2] = system: S. typhosa; test: agar dilution test, S. typhosa; conditions: read-out: Minimum Inhibitory Concentration, St
Description: as §1

[3] = system: A. aerogenes; test: agar dilution test, A. aerogenes; conditions: Klebsiella aerogenes, read-out: Minimum Inhibitory Concentration, Aa
Description: as §1

[4] = system: P. aeruginosa; test: agar dilution test, P. aeruginosa; conditions: Pseudomonas aeruginosa, read-out: Minimum Inhibitory Concentration, Pa
Description: as §1

[5] = system: C. pelliculosa; test: agar dilution test, C. pelliculosa; conditions: Hansenula anomala, read-out: Minimum Inhibitory Concentration, Cp
Description: as §1

[6] = system: S. cerevisiae; test: agar dilution test, S. cerevisiae; conditions: Saccharomyces cerevisiae, read-out: Minimum Inhibitory Concentration, Sc
Description: as §1

[7] = system: A. niger; test: agar dilution test, A. niger; conditions: Aspergillus niger, read-out: Minimum Inhibitory Concentration, An
Description: as §1

[8] = system: P. chrysogenum; test: agar dilution test, P. chrysogenum; conditions: Penicillium chrysogenum, read-out: Minimum Inhibitory Concentration, Pen
Description: as §1

[9] = A. aerogenes, agar dilution, complete growth inhibition
[10] = P. aeruginosa, agar dilution, complete growth inhibition
[11] = C. pelliculosa, agar dilution, complete growth inhibition
[12] = S. cerevisiae, agar dilution, complete growth inhibition
[13] = A. niger, agar dilution, complete growth inhibition
[14] = P. chrysogenum, agar dilution, complete growth inhibition

Compound	MIC [1] [µg/mL]	MIC [2] [µg/mL]	MIC [3, 9] [µg/mL]	MIC [4, 10] [µg/mL]	MIC [5, 11] [µg/mL]	MIC [6, 12] [µg/mL]	MIC [7, 13] [µg/mL]	MIC [8, 14] [µg/mL]	MIC ([2]; S. typhosa, agar dilution, complete growth inhibition) [µg/mL]	MIC [3] [µg/mL]	MIC [4] [µg/mL]	MIC [5] [µg/mL]	MIC [6] [µg/mL]	MIC [7] [µg/mL]	MIC [8] [µg/mL]
Cc1ccc(NC(=O)N2CN3CN(C/C=C\Cl)CN(C3)C2)cc1 [Example 3 b)]	50 (≈ 149 µM)	25 (≈ 74.4 µM)	50 (≈ 149 µM)	50 (≈ 149 µM)	250 (≈ 744 µM)	250 (≈ 744 µM)	250 (≈ 744 µM)	100 (≈ 298 µM)							
Cl/C=C\C[N+]12CN3CN(CN(C3)C1)C2.[Cl-] [Cis, cis-1-(3-chloro-2-propenyl)-3,5,7-triaza-1-azoniatricyclo (3,3,1,1^3,7) decane chloride, reference compound]	50								25	50	75	500	250	> 500	500
S=C(Nc1ccccc1)N1CN2CN(C/C=C\Cl)CN(C2)C1 [Example 2, N-Phenyl-3-.[.Thiocarboxamide.]..Iadd.Methanethioamide.Iaddend.-7-Cis-(3-Chloro-2-Propenyl)-1,3,5,7-Tetraazabicyclo(3,3,1)Nonane]	75 (≈ 222 µM)	25 (≈ 74 µM)	50 (≈ 148 µM)	75 (≈ 222 µM)	> 500	250 (≈ 740 µM)	250 (≈ 740 µM)	500 (≈ 1480 µM)							
Cc1ccc(C)c(NC(=O)N2CN3CN(C/C=C\Cl)CN(C3)C2)c1 [Example 3 c)]	75 (≈ 214 µM)	50 (≈ 143 µM)	75 (≈ 214 µM)	75 (≈ 214 µM)	250 (≈ 715 µM)	250 (≈ 715 µM)	500 (≈ 1430 µM)	250 (≈ 715 µM)							
S=C(Nc1ccc(Cl)c(Cl)c1)N1CN2CN(C/C=C\Cl)CN(C2)C1 [Example 3 l)]	50 (≈ 123 µM)	75 (≈ 184 µM)	100 (≈ 246 µM)	100 (≈ 246 µM)	250 (≈ 615 µM)	250 (≈ 615 µM)	250 (≈ 615 µM)	100 (≈ 246 µM)							
S=C(Nc1ccc(Br)cc1)N1CN2CN(C/C=C\Cl)CN(C2)C1 [Example 3 k)]	250 (≈ 600 µM)	75 (≈ 180 µM)	100 (≈ 240 µM)	250 (≈ 600 µM)	250 (≈ 600 µM)	500 (≈ 1200 µM)	500 (≈ 1200 µM)	250 (≈ 600 µM)							
O=C(Nc1cc(Cl)ccc1Cl)N1CN2CN(C/C=C\Cl)CN(C2)C1 [Example 3 f)]	75 (≈ 192 µM)	50 (≈ 128 µM)	75 (≈ 192 µM)	100 (≈ 256 µM)	250 (≈ 640 µM)	250 (≈ 640 µM)	500 (≈ 1280 µM)	250 (≈ 640 µM)							
S=C(Nc1ccc(Cl)cc1)N1CN2CN(C/C=C\Cl)CN(C2)C1 [Example 3 j)]	75 (≈ 201 µM)	50 (≈ 134 µM)	75 (≈ 201 µM)	100 (≈ 269 µM)	250 (≈ 671 µM)	250 (≈ 671 µM)	250 (≈ 671 µM)	100 (≈ 269 µM)							
COc1ccc(NC(=O)N2CN3CN(C/C=C\Cl)CN(C3)C2)cc1 [Example 3 a)]	50 (≈ 142 µM)	10 (≈ 28.4 µM)	75 (≈ 213 µM)	75 (≈ 213 µM)	250 (≈ 711 µM)	250 (≈ 711 µM)	500 (≈ 1420 µM)	250 (≈ 711 µM)							
O=C(Nc1ccc(Cl)cc1)N1CN2CN(C/C=C\Cl)CN(C2)C1 [Example 3 d)]	75 (≈ 211 µM)	25 (≈ 70.2 µM)	75 (≈ 211 µM)	100 (≈ 281 µM)	250 (≈ 702 µM)	250 (≈ 702 µM)	500 (≈ 1400 µM)	250 (≈ 702 µM)							
O=C(Nc1ccccc1)N1CN2CN(C/C=C\Cl)CN(C2)C1 [Example 1, N-Phenyl-3-Carboxamide-7-Cis(3-Chloro-2-Propenyl)-1,3,5,7-Tetraazabicyclo(3,3,1)Nonane]	50 (≈ 155 µM)	25 (≈ 77.7 µM)	50 (≈ 155 µM)	50 (≈ 155 µM)	250 (≈ 777 µM)	250 (≈ 777 µM)	500 (≈ 1550 µM)	250 (≈ 777 µM)							
Cc1ccc(NC(=S)N2CN3CN(C/C=C\Cl)CN(C3)C2)cc1C [Example 3 m)]	50 (≈ 137 µM)	50 (≈ 137 µM)	75 (≈ 205 µM)	100 (≈ 273 µM)	250 (≈ 683 µM)	250 (≈ 683 µM)	250 (≈ 683 µM)	100 (≈ 273 µM)							
CCCCNC(=O)N1CN2CN(C/C=C\Cl)CN(C2)C1 [Example 3 n)]	50 (≈ 166 µM)	25 (≈ 82.8 µM)	50 (≈ 166 µM)	75 (≈ 248 µM)	250 (≈ 828 µM)	250 (≈ 828 µM)	250 (≈ 828 µM)	250 (≈ 828 µM)							
CCCCNC(=S)N1CN2CN(C/C=C\Cl)CN(C2)C1 [Example 3 o)]	100 (≈ 315 µM)	75 (≈ 236 µM)	100 (≈ 315 µM)	250 (≈ 786 µM)	> 500	500 (≈ 1570 µM)	500 (≈ 1570 µM)	500 (≈ 1570 µM)							
O=C(Nc1ccc(Cl)c(Cl)c1)N1CN2CN(C/C=C\Cl)CN(C2)C1 [Example 3 g)]	50 (≈ 128 µM)	25 (≈ 64 µM)	250 (≈ 640 µM)	250 (≈ 640 µM)	250 (≈ 640 µM)	250 (≈ 640 µM)	500 (≈ 1280 µM)	250 (≈ 640 µM)							
O=C(Nc1ccc(Br)cc1)N1CN2CN(C/C=C\Cl)CN(C2)C1 [Example 3 e)]	100 (≈ 250 µM)	25 (≈ 62.4 µM)	100 (≈ 250 µM)	250 (≈ 624 µM)	250 (≈ 624 µM)	250 (≈ 624 µM)	500 (≈ 1250 µM)	250 (≈ 624 µM)							
Cc1ccc(S(=O)(=O)NC(=O)N2CN3CN(C/C=C\Cl)CN(C3)C2)cc1 [Example 3 i)]	250 (≈ 625 µM)	50 (≈ 125 µM)	250 (≈ 625 µM)	500 (≈ 1250 µM)	500 (≈ 1250 µM)	500 (≈ 1250 µM)	> 500	500 (≈ 1250 µM)							
O=C(NC1CCCCC1)N1CN2CN(C/C=C\Cl)CN(C2)C1 [Example 3 h)]	75 (≈ 229 µM)	25 (≈ 76.3 µM)	50 (≈ 153 µM)	50 (≈ 153 µM)	250 (≈ 763 µM)	250 (≈ 763 µM)	500 (≈ 1530 µM)	250 (≈ 763 µM)							
